The source of these data is US8063096B2, “Spirocyclic 3-phenyl-3substituted-4-ketolactams and-lactones” (Bayer Cropscience AG, priority 2001, dated 2011).

Common to all, as to type: in vivo
The subject of test [1] is Avena fatua. Nature of the test: Pre-emergence test, Avena fatua. The settings on record: pre-emergence/greenhouse; 250 g of ai/ha; after three weeks. The protocol:
(§1) [table] To produce a suitable preparation of active compound, 1 part by weight of active compound is mixed with the stated amount of solvent, the stated amount of emulsifier is added and the concentrate is diluted with water to the desired concentration. Seeds of the test plants are sown in normal soil. After about 24 hours, the soil is sprayed with the preparation of active compound such that the particular amounts of active compound desired are applied per unit area. The concentration of the spray liquor is chosen such that the particular amounts of active compound desired are applied in 1000 l of water/ha. After three weeks, the degree of damage to the plants is rated in % damage in comparison to the development of the untreated control. The figures denote: • 0%=no effect (like untreated control) • 100%=total destruction

The subject of test [2] is Sinapis. Nature of the test: Pre-emergence test, Sinapis. The settings on record: pre-emergence/greenhouse; 250 g of ai/ha; after three weeks. The protocol:
as §1

The test system of test [3] is Echinochloa. Description: Post-emergence test, Echinochloa. The settings on record: post-emergence/greenhouse; 250 g of ai/ha; after three weeks. The protocol:
as §1, with “Test plants” for “Seeds”, “a height of 5-15 cm” for “the test plants”, “are” for “are sown in normal soil. After about 24 hours, the soil is”, “(=like” for “(like”

Test [4] deals with Setaria. Nature of the test: Post-emergence test, Setaria. The settings on record: post-emergence/greenhouse; 250 g of ai/ha; after three weeks. The procedure:
as §1, with “Test plants” for “Seeds”, “a height of 5-15 cm” for “the test plants”, “are” for “are sown in normal soil. After about 24 hours, the soil is”, “(=like” for “(like”

The subject of test [5] is Amaranthus. Nature of the test: Post-emergence test, Amaranthus. The following applies: post-emergence/greenhouse; 250 g of ai/ha; after three weeks. The protocol: as §1, with “Test plants” for “Seeds”, “a height of 5-15 cm” for “the test plants”, “are” for “are sown in normal soil. After about 24 hours, the soil is”, “(=like” for “(like”
The test system of test [6] is Sinapis. Description: Post-emergence test, Sinapis. The settings on record: post-emergence/greenhouse; 250 g of ai/ha; after three weeks. The protocol:
as §1, with “Test plants” for “Seeds”, “a height of 5-15 cm” for “the test plants”, “are” for “are sown in normal soil. After about 24 hours, the soil is”, “(=like” for “(like”

Test [7] relates to Echinochloa. Description: Pre-emergence test, Echinochloa. The settings on record: pre-emergence/greenhouse; 250 g of ai/ha; after three weeks. The procedure: as §1
The test system of test [8] is Setaria. Nature of the test: Pre-emergence test, Setaria. The settings on record: pre-emergence/greenhouse; 250 g of ai/ha; after three weeks. The protocol:
as §1

Test [9] relates to Avena fatua. Nature of the test: Post-emergence test, Avena fatua. The settings on record: post-emergence/greenhouse; 250 g of ai/ha; after three weeks. The procedure: as §1, with “Test plants” for “Seeds”, “a height of 5-15 cm” for “the test plants”, “are” for “are sown in normal soil. After about 24 hours, the soil is”, “(=like” for “(like”
Test [10] deals with Alopecurus. Nature of the test: Pre-emergence test, Alopecurus. The settings on record: pre-emergence/greenhouse; 250 g of ai/ha; after three weeks. The protocol: as §1
Test [11] relates to Alopecurus. Nature of the test: Post-emergence test, Alopecurus. The settings on record: post-emergence/greenhouse; 250 g of ai/ha; after three weeks. The procedure:
as §1, with “Test plants” for “Seeds”, “a height of 5-15 cm” for “the test plants”, “are” for “are sown in normal soil. After about 24 hours, the soil is”, “(=like” for “(like”

In test [12] the test system is Amaranthus. Description: Pre-emergence test, Amaranthus. The following applies: pre-emergence/greenhouse; 250 g of ai/ha; after three weeks. The protocol: as §1
The subject of the next test is Myzus persicae. Nature of the test: Myzus test (leaf dip, cabbage). The settings on record: 500 ppm active compound, cabbage leaves dipped. The procedure:
[table] To produce a suitable preparation of active compound, 1 part by weight of active compound is mixed with the stated amounts of solvent and emulsifier, and the concentrate is diluted with emulsifier-containing water to the desired concentration. Cabbage leaves (Brassica oleracea) which are heavily infested by peach aphids (Myzus persicae) are treated by being dipped into the preparation of active compound of the desired concentration. After the desired period of time, the kill in % is determined. 100% means that all aphids have been killed; 0% means that none of the aphids have been killed.

For test [13], the system named is Sugar beet. Description: Post-emergence test, Sugar beet. The following applies: post-emergence/greenhouse; 250 g of ai/ha; after three weeks; crop. The procedure: as §1, with “Test plants” for “Seeds”, “a height of 5-15 cm” for “the test plants”, “are” for “are sown in normal soil. After about 24 hours, the soil is”, “(=like” for “(like”
Test [14] has as its system Sugar beet. Description: Pre-emergence test, Sugar beet. The following applies: pre-emergence/greenhouse; 250 g of ai/ha; after three weeks; crop. The protocol: as §1
A further test relates to Phaedon cochleariae. Nature of the test: Phaedon larvae test. The following applies: 500 ppm active compound, cabbage leaves dipped. The protocol: [table] To produce a suitable preparation of active compound, 1 part by weight of active compound is mixed with the stated amounts of solvent and emulsifier, and the concentrate is diluted with emulsifier-containing water to the desired concentration. Cabbage leaves (Brassica oleracea) are treated by being dipped into the preparation of active compound of the desired concentration and are populated with larvae of the mustard beetle (Phaedon cochleariae) while leaves are still moist. After the desired period of time, the kill in % is determined. 100% means that all beetle larvae have been killed; 0% means that none of the beetle larvae have been killed.

For the compound `CCOC1CCC2(CC1)NC(=O)C(Cl)(c1c(C)cc(C)cc1C)C2=O` (centres unmarked) [Ex. I-1-a-4], the “% damage, Avena fatua” value in the test on Avena fatua [1] was found to be 90%; with Avena fatua [9], 95%. Besides, the “% damage, Sinapis” value in the test on Sinapis [2] and in the test with Sinapis [6] was 95% throughout. Moreover, the “% damage, Echinochloa” value with Echinochloa [3] and in the test on Echinochloa [7] was 100% throughout. The “% damage, Setaria” value in the test with Setaria [4] and in the test with Setaria [8] was 100% each time. The “% damage, Amaranthus” value with Amaranthus [5] is 90%; with Amaranthus [12], 100%. Further, the “% damage, Alopecurus” value with Alopecurus [10] was 100%; in the test with Alopecurus [11], 95%.
For the compound `COC1CCC2(CC1)NC(=O)C(Cl)(c1c(C)cc(Br)cc1Cl)C2=O` (centres unmarked) [Ex. I-1-a-10], the “% damage, Avena fatua” value in the test on Avena fatua [1] and in the test with Avena fatua [9] was 90% each time. The results for the “% damage, Sinapis” value with Sinapis [2] and in the test with Sinapis [6] were 90% and 80%, respectively. Further, the “% damage, Echinochloa” value in the test with Echinochloa [3] and in the test on Echinochloa [7] was 100% in each case. The “% damage, Setaria” value with Setaria [4] and with Setaria [8] was 100% throughout. The “% damage, Amaranthus” value with Amaranthus [5] and in the test on Amaranthus [12] was 80% each time. In addition, the “% damage, Alopecurus” value in the test with Alopecurus [10] turned out to be 100%; in the test with Alopecurus [11], 90%. In addition, the “Kill rate in % after 6d” value in the test with Myzus persicae was 99%.
For the compound `CCc1cc(Br)cc(Cl)c1C1(Cl)C(=O)NC2(CCC(OC)CC2)C1=O` (centres unmarked) [Ex. I-1-a-44], the “% damage, Sugar beet” value in the test on Sugar beet [13] and in the test with Sugar beet [14] was 0% each time. Also, the “% damage, Avena fatua” value in the test on Avena fatua [1] and in the test on Avena fatua [9] was 100% throughout. Moreover, the “% damage, Sinapis” value in the test on Sinapis [2] worked out at 80%; with Sinapis [6] it was 70%. The “% damage, Echinochloa” value with Echinochloa [3] and in the test on Echinochloa [7] was 100% throughout. Moreover, the “% damage, Setaria” value in the test with Setaria [4] and with Setaria [8] was 100% throughout. Also, the figures for the “% damage, Alopecurus” value in the test with Alopecurus [10] and with Alopecurus [11] were 100% and 95%, respectively. Also, the “Kill rate in % after 6d” value with Myzus persicae is listed as 98%.
As to `CCc1cc(Br)cc(C)c1C1(Cl)C(=O)NC2(CCCOC2)C1=O` (centres unmarked) [Ex. I-1-b-12], the “% damage, Sugar beet” value with Sugar beet [13] and in the test with Sugar beet [14] was 0% throughout. For the same compound, the “% damage, Avena fatua” value with Avena fatua [1] and in the test on Avena fatua [9] was 100% throughout. For the same compound, the “% damage, Echinochloa” value with Echinochloa [3] and with Echinochloa [7] was 100% each time. Moreover, the “% damage, Setaria” value with Setaria [4] and in the test with Setaria [8] was 100% each time. Moreover, the “% damage, Alopecurus” value in the test with Alopecurus [10] was determined as 95%; in the test with Alopecurus [11], 90%.
Consider `COC1CCC2(CC1)NC(=O)C(Cl)(c1c(Cl)cc(C)cc1Cl)C2=O` (centres unmarked) [Ex. I-1-a-6], for which the “% damage, Avena fatua” value in the test on Avena fatua [1] and in the test with Avena fatua [9] was 95% in each case. Moreover, the entries for the “% damage, Sinapis” value in the test with Sinapis [2] and in the test on Sinapis [6] were 90% and 80%, respectively. Besides, the “% damage, Echinochloa” value with Echinochloa [3] is 100%; in the test with Echinochloa [7] it was 95%. The “% damage, Setaria” value in the test with Setaria [4] and in the test on Setaria [8] was 100% throughout. Also, the “% damage, Amaranthus” value in the test with Amaranthus [5] is reported as 90%; in the test with Amaranthus [12], 100%. Moreover, the “% damage, Alopecurus” value with Alopecurus [10] was 100%; in the test on Alopecurus [11] it was 95%. Further, the “Kill rate in % after 7d” value in the test on Phaedon cochleariae was found to be 100%.
For the compound `CCc1cc(Br)cc(C)c1C1(Cl)C(=O)NC2(CCC(OC)CC2)C1=O` (centres unmarked) [Ex. I-1-a-26], the “% damage, Sugar beet” value in the test with Sugar beet [13] amounted to 0%. For the same compound, the “% damage, Echinochloa” value with Echinochloa [3] was determined as 100%. For the same compound, in the test with Setaria [4], the “% damage, Setaria” value is given as 100%. Also, the “% damage, Sinapis” value in the test with Sinapis [6] came to 80%. The “% damage, Avena fatua” value with Avena fatua [9] came to 100%. The “% damage, Alopecurus” value with Alopecurus [11] is reported as 100%. Further, in the test on Phaedon cochleariae, the “Kill rate in % after 7d” value is 100%.
